According to patent US20050112573A1, “Method of detecting toxic substance” (priority 2001, published 2005):

Legend:
Format in all cases: cell-based, Saccharomyces cerevisiae W303
[1] = test system: promoter of yeast gene YCR102c
Source text: (§1) The inventors of the present application understood that the induction of certain yeast genes by toxic substances is caused by the activation of the promoters of the genes by the toxic substances. Thus, the inventors prepared a vector that comprised a polynucleotide sequence comprising the promoter of the yeast gene, which sequence is operably linked to a polynucleotide encoding a marker protein; and transformed yeast cells with the vector. […] The working examples hereinafter illustrate the preparation of such vectors, transformation of yeast cells by use of said vectors, and the detection of toxic substances by use of the transformed cells.
(§2) Promoter assay is a method for determining variations of the level of intracellular genes without destroying cells on the basis of the level of expressed marker genes instead of the expressed mRNA. The gene selected to detect a chemical substance is expressed in the absence of chemical substances, and thus a marker protein also occurs in the absence of chemical substances. In the method according to the present invention, the behavior of yeast genes on the addition of test materials is determined on the basis of the level of expressed marker protein so that the presence or the absence, and the kind of toxic chemical substances are predicted. Thus, it is desired that the production of marker proteins is lower in the absence of chemical substances, and the production of marker proteins is higher in the presence of chemical substances.
(§3) Type YEp shuttle vector pYES2 (pYES2, Cat no: V825-20, Invirtogen Corporation, USA), which can be replicated both in E. coli. and yeast was used as vector (R. W. Old, S. B. Primrose Principles of Gene Manipulation 5th Ed., BAIFUKAN CO., LTD, pp138-165, pp.234-263, 2000). The portion of vector PQBI 63 (Cat no.54-0082, Wako Pure Chemical Industries, Ltd.) corresponding to a marker protein GFP was used as the polynucleotide encoding GFP (SEQ ID No: 6). First, the GFP polynucleotide was inserted into the multiple cloning sites of pYES2 to give a vector. Thereafter, the GALL promoter of pYES2 was replaced with the polynucleotide comprising the promoter sequence of the intended yeast gene YCR102c (SEQ ID No: 2) to give an intended plasmid vector. Suitable restriction enzymes were selected, and the insertion of the polynucleotide comprising GFP and the promoter sequence was conducted.
(§4) Next, the yeast Saccharomyces cerevisiae W303 was transformed with the resultant plasmid vector according to the following procedures: • 1) Incubating the yeast Saccharomyces cerevisiae W303 in 200 ml of SD medium under shaking until OD 660 reaches 0.5; • 2) Suspending the collected cells in 5 ml of TE-buffer; • 3) Adding 250 μL of 2.5M lithium acetate; • 4) Dispending each 300 μl, adding 10 μl of above plasmid vector thereto, then incubating the suspensions at 30° C. for 30 minutes; • 5) Adding 700 μl of 50% PEG4000, and incubating the mixture under shaking at 30° C. for 60 minutes; • 6) Giving heat shock (42° C., 5 minutes), and then immediately cooling the mixture; • 7) Washing the mixture twice with 1M sorbitol; and • 8) Seeding it on agar plates made of minimum essential medium.
(§5) The cells of SC-YCR102C-pQBI as prepared in Example 3 were contacted to one of the following compounds. The yeast cells SC-YCR102C-pQBI were incubated at 25° C. in SD medium (Yeast nitrogen base without amino acids (Difco 0919-15)+glucose+amino acids (adenine, histidine, tryptophan)). One of toxic chemical substances as shown below was added to the cells at logarithmic growth phase, and then the cells were further incubated for two hours.

[2] = test system: promoter of yeast gene YLL057c
Source text: as §1, §2
as §3, with “YLL057c” for “YCR102c”, “4)” for “2)”
as §4
as §5, with “SC-YLL057C-pQBI” for “SC-YCR102C-pQBI”, “5” for “3”

[3] = test system: promoter of yeast gene YLR303w
Source text: as §1, §2
as §3, with “pQBI” for “PQBI”, “GAL1” for “GALL”, “YLR303w” for “YCR102c”, “5)” for “2)”
as §4
as §5, with “SC-YCR303W-pQBI” for “SC-YCR102C-pQBI”, “6” for “3”

Question: For `CC(=O)O.Cc1nc(N)cc2[nH]c3ccccc3c12` [Trp-P-2 (acetate)], which Fluorescence [1] is on record?
Answer: − (key: −: the number of the cells having a higher fluorescence than the control was under 1%; +: between 1% and 2%; ++: 2% or more)

Question: What about the Fluorescence [2] of the same compound?
Answer: − (key: −: the number of the cells having a higher fluorescence than the control was under 1%; +: between 1% and 2%; ++: 2% or more)

Question: And the Fluorescence [3]?
Answer: − (key: −: the number of the cells having a higher fluorescence than the control was under 1%; +: between 1% and 2%; ++: 2% or more)
